# Assay results taken from PubChem BioAssay (NCI).
#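 Briefly, cells in 96-well plates were exposed to five compound concentrations for 48 h, and endpoints were estimated by linear interpolation. TGI is the concentration that stops growth completely.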
# Assays:
# Assay in all cases: inhibition of tumour cell growth, NCI panel, 48 h
# [1] = test system: A549 NSCLC
# [2] = test system: HOP-92 NSCLC
# [3] = test system: U251 CNS
# [4] = test system: SN12C renal
# [5] = test system: DLD-1 colon
# [6] = test system: SNB-19 CNS
# [7] = test system: CAKI-1 renal
# [8] = test system: HCT-15 colon
# [9] = test system: SK-MEL-2 melanoma
# [10] = test system: SNB-78 CNS
# [11] = test system: SK-MEL-28 melanoma
# [12] = test system: HOP-62 NSCLC
# [13] = test system: RXF 393 renal
# [14] = test system: UO-31 renal
# [15] = test system: SF-295 CNS
# [16] = test system: OVCAR-5 ovarian
# [17] = test system: NCI-H23 lung
# [18] = test system: UACC-257 melanoma
# [19] = test system: OVCAR-3 ovarian
# [20] = test system: HCC-2998 colon
# [21] = test system: LXFL 529 NSCLC
# [22] = test system: M19-MEL melanoma
# [23] = test system: RPMI-8226 leukemia
# [24] = test system: DMS 273 small cell lung
# [25] = test system: EKVX NSCLC
# [26] = test system: SR leukemia
# [27] = test system: HL-60(TB) leukemia
# [28] = test system: A498 renal
# [29] = test system: SNB-75 CNS
# [30] = test system: OVCAR-8 ovarian
# [31] = test system: KM20L2 colon
# [32] = test system: MALME-3M melanoma
# [33] = test system: UACC-62 melanoma
# [34] = test system: K-562 leukemia
# [35] = test system: NCI-H460 lung
# [36] = test system: SK-MEL-5 melanoma
# [37] = test system: HOP-18 NSCLC
# [38] = test system: LOX IMVI melanoma
# [39] = test system: DMS 114 small cell lung
# [40] = test system: 786-0 renal
# [41] = test system: SF-268 CNS
# [42] = test system: KM12 colon
# [43] = test system: TK-10 renal
# [44] = test system: SK-OV-3 ovarian
# [45] = test system: NCI-H226 lung
# [46] = test system: OVCAR-4 ovarian
# [47] = test system: NCI-H522 lung
# [48] = test system: M14 melanoma
# [49] = test system: CCRF-CEM leukemia
# [50] = test system: COLO 205 colon
# [51] = test system: IGROV1 ovarian
# [52] = test system: MOLT-4 leukemia
# [53] = test system: SW-620 colon
# [54] = test system: ACHN renal
# [55] = test system: HT29 colon
# [56] = test system: HCT-116 colon
# [57] = test system: SF-539 CNS
# [58] = test system: XF 498 CNS
structure (smiles),measurement,setting,value
CCc1cccc(C)c1NC(=S)NC(=O)c1ccccc1C(=O)NC(=S)Nc1c(C)cccc1CC,TGI,[1],> 100 µM
same,TGI,[2],65.4 µM
same,TGI,[3],> 100 µM
same,TGI,[4],> 100 µM
same,TGI,[5],> 100 µM
same,TGI,[6],> 100 µM
same,TGI,[7],> 100 µM
same,TGI,[8],> 100 µM
same,TGI,[9],> 100 µM
same,TGI,[10],> 100 µM
same,TGI,[11],> 100 µM
same,TGI,[12],> 100 µM
same,TGI,[13],> 100 µM
same,TGI,[14],> 100 µM
same,TGI,[15],> 100 µM
same,TGI,[16],> 100 µM
same,TGI,[17],> 100 µM
same,TGI,[18],> 100 µM
same,TGI,[19],80.9 µM
same,TGI,[20],> 100 µM
same,TGI,[21],> 100 µM
same,TGI,[22],> 100 µM
same,TGI,[23],> 100 µM
same,TGI,[24],> 100 µM
same,TGI,[25],> 100 µM
same,TGI,[26],> 100 µM
same,TGI,[27],> 100 µM
same,TGI,[28],> 100 µM
same,TGI,[29],> 100 µM
same,TGI,[30],> 100 µM
same,TGI,[31],> 100 µM
same,TGI,[32],> 100 µM
same,TGI,[33],> 100 µM
same,TGI,[34],> 100 µM
same,TGI,[35],> 100 µM
same,TGI,[36],> 100 µM
same,TGI,[37],> 100 µM
same,TGI,[38],> 100 µM
same,TGI,[39],70.8 µM
same,TGI,[40],> 100 µM
same,TGI,[41],> 100 µM
same,TGI,[42],> 100 µM
same,TGI,[43],> 100 µM
same,TGI,[44],> 100 µM
same,TGI,[45],> 100 µM
same,TGI,[46],> 100 µM
same,TGI,[47],35.2 µM
same,TGI,[48],> 100 µM
same,TGI,[49],> 100 µM
same,TGI,[50],> 100 µM
same,TGI,[51],> 100 µM
same,TGI,[52],> 100 µM
same,TGI,[53],> 100 µM
same,TGI,[54],> 100 µM
same,TGI,[55],> 100 µM
same,TGI,[56],> 100 µM
same,TGI,[57],> 100 µM
CCCCN(CCCC)CCCn1cnc2ncccc2c1=O,TGI,[1],> 100 µM
same,TGI,[2],> 100 µM
same,TGI,[3],> 100 µM
same,TGI,[4],> 100 µM
same,TGI,[5],> 100 µM
same,TGI,[6],> 100 µM
same,TGI,[7],> 100 µM
same,TGI,[9],> 100 µM
same,TGI,[10],> 100 µM
same,TGI,[11],> 100 µM
same,TGI,[12],> 100 µM
same,TGI,[13],> 100 µM
same,TGI,[14],> 100 µM
same,TGI,[58],> 100 µM
same,TGI,[15],> 100 µM
same,TGI,[16],> 100 µM
same,TGI,[17],> 100 µM
same,TGI,[19],> 100 µM
same,TGI,[20],> 100 µM
same,TGI,[21],> 100 µM
same,TGI,[22],> 100 µM
same,TGI,[24],> 100 µM
same,TGI,[25],> 100 µM
same,TGI,[26],> 100 µM
same,TGI,[29],> 100 µM
same,TGI,[30],> 100 µM
same,TGI,[31],> 100 µM
same,TGI,[32],> 100 µM
same,TGI,[33],> 100 µM
same,TGI,[34],> 100 µM
same,TGI,[35],> 100 µM
same,TGI,[36],> 100 µM
same,TGI,[38],> 100 µM
same,TGI,[39],> 100 µM
same,TGI,[40],> 100 µM
same,TGI,[41],> 100 µM
same,TGI,[42],> 100 µM
same,TGI,[43],> 100 µM
same,TGI,[44],> 100 µM
same,TGI,[45],> 100 µM
same,TGI,[46],> 100 µM
same,TGI,[47],> 100 µM
same,TGI,[48],> 100 µM
same,TGI,[49],> 100 µM
same,TGI,[50],> 100 µM
same,TGI,[51],> 100 µM
same,TGI,[52],> 100 µM
same,TGI,[53],> 100 µM
same,TGI,[54],> 100 µM
same,TGI,[55],> 100 µM
same,TGI,[56],> 100 µM
same,TGI,[57],> 100 µM
Cc1cc(Cl)ccc1NC(=O)C(=O)C(C(=O)c1ccccc1)C1OC(=O)c2ccccc21 (centres undefined),TGI,[1],> 100 µM
same,TGI,[2],> 100 µM
same,TGI,[3],> 100 µM
same,TGI,[4],> 100 µM
same,TGI,[5],> 100 µM
same,TGI,[6],> 100 µM
same,TGI,[7],> 100 µM
same,TGI,[8],> 100 µM
same,TGI,[9],> 100 µM
same,TGI,[10],> 100 µM
same,TGI,[11],> 100 µM
same,TGI,[12],> 100 µM
same,TGI,[13],> 100 µM
same,TGI,[14],> 100 µM
same,TGI,[58],> 100 µM
same,TGI,[15],> 100 µM
same,TGI,[16],> 100 µM
same,TGI,[17],> 100 µM
same,TGI,[18],> 100 µM
same,TGI,[20],> 100 µM
same,TGI,[21],> 100 µM
same,TGI,[22],> 100 µM
same,TGI,[23],> 100 µM
same,TGI,[24],> 100 µM
same,TGI,[25],> 100 µM
same,TGI,[26],> 100 µM
same,TGI,[27],> 100 µM
same,TGI,[28],> 100 µM
same,TGI,[29],> 100 µM
same,TGI,[30],> 100 µM
same,TGI,[31],> 100 µM
same,TGI,[32],> 100 µM
same,TGI,[33],> 100 µM
same,TGI,[34],> 100 µM
same,TGI,[35],> 100 µM
same,TGI,[36],> 100 µM
same,TGI,[37],> 100 µM
same,TGI,[38],> 100 µM
same,TGI,[39],> 100 µM
same,TGI,[40],> 100 µM
same,TGI,[41],> 100 µM
same,TGI,[42],> 100 µM
same,TGI,[43],> 100 µM
same,TGI,[44],> 100 µM
same,TGI,[45],> 100 µM
same,TGI,[46],> 100 µM
same,TGI,[47],> 100 µM
same,TGI,[48],> 100 µM
same,TGI,[49],> 100 µM
same,TGI,[50],> 100 µM
same,TGI,[51],> 100 µM
same,TGI,[52],> 100 µM
same,TGI,[53],> 100 µM
same,TGI,[54],> 100 µM
same,TGI,[55],> 100 µM
same,TGI,[56],> 100 µM
same,TGI,[57],> 100 µM
C[Si](C)(C)C(Sc1ccccc1)(Sc1ccccc1)Sc1ccccc1,TGI,[1],> 100 µM
same,TGI,[2],94.1 µM
same,TGI,[3],> 100 µM
same,TGI,[4],> 100 µM
same,TGI,[5],> 100 µM
same,TGI,[6],> 100 µM
same,TGI,[7],> 100 µM
same,TGI,[8],> 100 µM
same,TGI,[9],> 100 µM
same,TGI,[10],> 100 µM
same,TGI,[11],> 100 µM
same,TGI,[13],> 100 µM
same,TGI,[14],> 100 µM
same,TGI,[58],> 100 µM
same,TGI,[15],> 100 µM
same,TGI,[17],> 100 µM
same,TGI,[18],> 100 µM
same,TGI,[20],> 100 µM
same,TGI,[21],> 100 µM
same,TGI,[22],> 100 µM
same,TGI,[23],> 100 µM
same,TGI,[24],> 100 µM
same,TGI,[25],> 100 µM
same,TGI,[26],> 100 µM
same,TGI,[27],> 100 µM
same,TGI,[28],> 100 µM
same,TGI,[29],> 100 µM
same,TGI,[30],> 100 µM
same,TGI,[31],> 100 µM
same,TGI,[33],> 100 µM
same,TGI,[34],> 100 µM
same,TGI,[35],> 100 µM
same,TGI,[36],> 100 µM
same,TGI,[38],> 100 µM
same,TGI,[39],> 100 µM
same,TGI,[40],> 100 µM
same,TGI,[41],> 100 µM
same,TGI,[42],> 100 µM
same,TGI,[43],> 100 µM
same,TGI,[44],> 100 µM
same,TGI,[46],> 100 µM
same,TGI,[49],> 100 µM
same,TGI,[50],> 100 µM
same,TGI,[52],> 100 µM
same,TGI,[53],> 100 µM
same,TGI,[54],> 100 µM
same,TGI,[56],> 100 µM
same,TGI,[57],> 100 µM
